Laboratory results: patent US3962282A, “Juvenile hormone mimics” (priority 1974, dated 1976)

Columns and labels:
Assay type in all cases: in vivo
[1] = tested on: wax moth; test: topical application to wax moth, fifth larval stage, maturation inhibition
Source text: (§1) The compounds were applied in acetone solution at concentrations of 10 percent, 1 percent and 0.5 percent. One microliter of the acetone solution was applied to each test specimen. Ten test specimens were employed for each insect at each concentration and compared to ten acetone controls and ten zero controls. Approximately eight to ten days were required before results could be ascertained.
(§2) The insect species used in the test were Tenebrio molitor pupae; milkweed bug, fourth nymphal stage; wax moth, fifth larval stage; and Mexican bean beetle, fourth larval stage. At the completion of the test, each specimen was examined for the degree of juvenile and adult characteristics. The milkweed bug, wax moth, and Mexican bean beetle were assigned a numerical rating of 0 to 3 with 0 indicating no effect and 3 indicating the maximum effect or least adult development. Because of differences in morphology the Tenebrio rating scale was 0 to 4. In all cases a rating of 2 or higher means that the insect is incapable of reproduction. The number of specimens in each rating classification are given. In any test were the total of specimens reported is less than 10, those unreported died in some metamorphic stage. Such deaths indicate control, since the dead insects are not capable of reproducing.

[2] = tested on: Tenebrio molitor pupae; test: topical application to Tenebrio molitor pupae, maturation inhibition
Source text: as §1, §2

[3] = tested on: milkweed bug; test: topical application to milkweed bug, fourth nymphal stage, maturation inhibition; settings: rating scale 0-3
Source text: as §1, §2

[4] = tested on: Mexican bean beetle; test: topical application to Mexican bean beetle, fourth larval stage, maturation inhibition
Source text: as §1, §2

[5] = 10% in acetone, 1 microliter topical, rating scale 0 (no effect) to 3 (maximum)
[6] = 10% in acetone, 1 microliter topical, rating scale 0 (no effect) to 4 (maximum)

| SMILES | number of specimens in rating 0 ([1]; 0.5%, rating scale 0-3) [specimens] | number of specimens in rating 0 ([1]; 1%, rating scale 0-3) [specimens] | number of specimens in rating 0 [1, 5] [specimens] | number of specimens in rating 0 ([2]; 0.5%, rating scale 0-4) [specimens] | number of specimens in rating 0 ([2]; 1%, rating scale 0-4) [specimens] | number of specimens in rating 0 ([3]; 0.5%) [specimens] | number of specimens in rating 2 ([3]; 0.5%) [specimens] | number of specimens in rating 3 ([3]; 1%) [specimens] | number of specimens in rating 3 ([3]; 10%) [specimens] | number of specimens in rating 0 ([4]; 0.5%, rating scale 0-3) [specimens] | number of specimens in rating 0 ([4]; 1%, rating scale 0-3) [specimens] | number of specimens in rating 0 [4, 5] [specimens] | number of specimens in rating 4 ([2]; 10%, rating scale 0-4) [specimens] | number of specimens in rating 1 ([3]; 0.5%) [specimens] | number of specimens in rating 0 ([3]; 1%) [specimens] | number of specimens in rating 3 ([4]; 0.5%, rating scale 0-3) [specimens] | number of specimens in rating 3 ([4]; 1%, rating scale 0-3) [specimens] | number of specimens in rating 1 ([2]; 1%, rating scale 0-4) [specimens] | number of specimens in rating 2 ([3]; 1%) [specimens] | number of specimens in rating 3 ([4]; 10%, rating scale 0-3) [specimens] | other results |
| --- | --- | --- | --- | --- | --- | --- | --- | --- | --- | --- | --- | --- | --- | --- | --- | --- | --- | --- | --- | --- | --- |
| CCOC(=O)c1ccc(CC/C=C(\C)CCC=C(C)C)cc1 [ethyl trans-4-(4,8-dimethyl-3,7-nonadienyl)benzoate] | 10 | 10 | 10 | 9 | 10 | 1 | 3 | 10 | 10 | 9 | 10 | 8 |  |  |  |  |  |  |  |  | number of specimens in rating 0 [2, 6]: 3 specimens; number of specimens in rating 1 ([2]; 10%, rating scale 0-4): 5 specimens; number of specimens in rating 2 ([2]; 10%, rating scale 0-4): 1 specimens; number of specimens in rating 3 ([2]; 10%, rating scale 0-4): 1 specimens; number of specimens in rating 3 ([3]; 0.5%): 6 specimens; number of specimens in rating 2 ([4]; 10%, rating scale 0-3): 2 specimens |
| CCC1(C)OC1CCC(C)=CCCc1ccc2c(c1)OCO2 (stereo not drawn) [3,4-EPOXY-3,7-DIMETHYL-10-(3,4-METHYLENEDIOXYPHENYL)-7-DECENE] |  |  |  |  |  | 2 | 2 | 8 |  |  |  |  | 10 | 5 | 2 | 10 | 10 |  |  |  | number of specimens in rating 2 ([1]; 0.5%, rating scale 0-3): 1 specimens; number of specimens in rating 3 ([1]; 0.5%, rating scale 0-3): 9 specimens; number of specimens in rating 3 ([1]; 1%, rating scale 0-3): 10 specimens; number of specimens in rating 4 ([2]; 0.5%, rating scale 0-4): 10 specimens; number of specimens in rating 4 ([2]; 1%, rating scale 0-4): 10 specimens |
| CCOc1cccc(CCC=C(C)CCC=C(C)C)c1 [9-(3-ethoxyphenyl)-2,6-dimethyl-2,6nonadiene] | 10 | 10 | 10 | 10 | 8 | 3 | 2 | 2 | 7 | 10 | 8 | 1 | 4 | 1 |  |  |  | 2 | 7 | 7 | number of specimens in rating 1 ([2]; 10%, rating scale 0-4): 1 specimens; number of specimens in rating 3 ([2]; 10%, rating scale 0-4): 5 specimens; number of specimens in rating 1 ([4]; 1%, rating scale 0-3): 2 specimens; number of specimens in rating 2 ([4]; 10%, rating scale 0-3): 2 specimens |
| CC(C)=CCC/C(C)=C/CCc1ccc(F)cc1 [trans-9-(4-FLUOROPHENYL)-2,6-DIMETHYL-2,6-NONADIENE] | 10 | 9 | 10 | 10 | 10 |  | 3 | 8 | 10 |  |  |  | 10 |  |  | 10 | 10 |  | 2 | 10 | number of specimens in rating 3 ([3]; 0.5%): 7 specimens |
| CC(C)=CCC/C(C)=C/CCc1ccc(N(C)C)cc1 [trans-4-(4,8-DIMETHYL-3,7-NONADIENYL)-N,N-DIMETYLANILINE] | 10 | 10 | 10 | 10 | 2 | 10 |  | 2 | 10 | 10 | 9 |  | 10 |  | 5 |  | 1 | 2 | 1 | 10 | number of specimens in rating 2 ([2]; 1%, rating scale 0-4): 1 specimens; number of specimens in rating 3 ([2]; 1%, rating scale 0-4): 4 specimens; number of specimens in rating 1 ([3]; 1%): 1 specimens |
| CC(C)=CCCC(C)=CCCc1cc2c(cc1Cl)OCO2 [9-(2-CHLORO-4,5-METHYLENEDIOXYPHENYL)-2,6-DIMETHYL-2,6-NONADIENE] | 10 | 10 | 8 | 10 | 10 | 9 |  | 6 | 10 | 10 | 9 | 7 |  | 1 | 3 |  | 10 |  |  | 10 | number of specimens in rating 2 ([1]; 10%, rating scale 0-3): 1 specimens; number of specimens in rating 0 [2, 6]: 10 specimens; number of specimens in rating 1 ([3]; 1%): 1 specimens; number of specimens in rating 2 ([4]; 1%, rating scale 0-3): 1 specimens; number of specimens in rating 1 ([4]; 10%, rating scale 0-3): 3 specimens |
| CCC(C)=CCCC(=CCCc1ccc2c(c1)OCO2)CC [3-METHYL-7-ETHYL-10-(3,4-METHYLENEDIOXYPHENYL)-3,7-DECADIENE] | 9 | 10 | 10 |  |  | 9 |  | 1 | 10 |  |  |  | 10 | 1 | 7 | 9 | 10 |  | 2 | 10 | number of specimens in rating 3 ([2]; 0.5%, rating scale 0-4): 2 specimens; number of specimens in rating 4 ([2]; 0.5%, rating scale 0-4): 8 specimens; number of specimens in rating 3 ([2]; 1%, rating scale 0-4): 1 specimens; number of specimens in rating 4 ([2]; 1%, rating scale 0-4): 9 specimens; number of specimens in rating 2 ([4]; 0.5%, rating scale 0-3): 1 specimens |
| CC(C)=CCC/C(C)=C/CCc1c(Cl)cccc1Cl [trans-9-(2,6-DICHLOROPHENYL)-2,6-DIMETHYL-2,6-NONADIENE] | 10 | 10 | 10 | 10 | 10 | 10 |  |  | 10 | 10 | 9 | 8 |  |  | 8 |  |  |  |  |  | number of specimens in rating 0 [2, 6]: 9 specimens; number of specimens in rating 1 ([4]; 1%, rating scale 0-3): 1 specimens; number of specimens in rating 1 ([4]; 10%, rating scale 0-3): 2 specimens |
| CC(C)=CCC/C(C)=C/CCc1ccccc1 [2,6-DIMETHYL-9-PHENYL-2,6-NONADIENE] | 10 | 10 | 10 | 7 | 6 | 8 | 1 |  | 9 |  |  |  | 5 | 1 | 2 | 10 | 10 | 4 |  | 10 | number of specimens in rating 1 ([2]; 0.5%, rating scale 0-4): 3 specimens; number of specimens in rating 2 ([2]; 10%, rating scale 0-4): 1 specimens; number of specimens in rating 3 ([2]; 10%, rating scale 0-4): 4 specimens; number of specimens in rating 1 ([3]; 1%): 1 specimens |
| CC(C)=CCC/C(C)=C/CCc1ccc(Br)cc1 [trans-9-(4-BROMOPHENYL)-2,6-DIMETHYL-2,6-NONADIENE] |  |  |  | 8 | 9 |  |  | 10 | 9 |  |  |  | 10 |  |  | 10 | 10 | 1 |  | 10 | number of specimens in rating 1 ([2]; 0.5%, rating scale 0-4): 1 specimens; number of specimens in rating 4 ([2]; 0.5%, rating scale 0-4): 1 specimens; number of specimens in rating 3 ([3]; 0.5%): 10 specimens |
